Like-named read-outs stand apart in the source and are kept apart here. Where a SMILES comes first, the peptide text is derived from it. The star is where a group is joined. AspCH2OBz(2,6-Me2) = Cc1cccc(C)c1C(=O)OCC(=O)[C@H](CC(=O)O)N*
Assays:
caspase-2 [1] = molecular target: T1, caspase-2 (Homo sapiens, UniProt P42575); details: state of the art; cited from earlier work
T1 sequence (P42575 170-325 limits assumed): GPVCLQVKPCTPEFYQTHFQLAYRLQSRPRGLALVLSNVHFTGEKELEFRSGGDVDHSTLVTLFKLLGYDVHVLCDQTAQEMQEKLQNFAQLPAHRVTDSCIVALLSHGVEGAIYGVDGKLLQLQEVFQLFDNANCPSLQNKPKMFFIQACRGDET
T1 sequence (P42575 348-452 limits assumed): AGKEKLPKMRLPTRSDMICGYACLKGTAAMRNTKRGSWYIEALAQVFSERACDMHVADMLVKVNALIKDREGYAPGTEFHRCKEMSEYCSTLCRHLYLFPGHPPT

caspase-2 [2] = molecular target: T1, caspase-2; assay: Kinetic assay of substrates NH-Idc-P4-P3-Dab-Asp-ACC (Example 4); assay type: biochemical; details: substrate 10 μM; caspase-2 10 nM; 37° C.
Experimental: Prior to kinetic assay, substrates (several L) were diluted in DMSO to the […] (working concentration). Next, 1 μL of such substrate was spot into the well of 96-well plate following by the addition of […] of caspase-2 in buffer. Immediately after the enzyme was added, the plate was placed in fluorescence plate reader and the fluorescence was measured over the time in a kinetic mode (excitation 355 nm, emission 460 nm). The liberation of fluorescence was carried out for 30 minutes, and only linear portion of the plot was taken for analysis to calculate the rate of the reaction. The rate of best cleaved substrate was set to 100% and all other substrates were adjusted accordingly (cleavage rate, %). The final concentration of substrate was 10 μM, and the final concentration of caspase-2 was 10 nM. The caspase-2 assay buffer was 20 mM Pipes, 100 mM NaCl, sucrose 10% (w/v), 10 mM DTT, pH 7.2-7.4. The caspase-2 was preincubated in buffer at 37° C. for 15 min before added to the substrate.

caspase-8 [3] = molecular target: T2, caspase-8 (Homo sapiens, UniProt Q14790); assay: Determination of Ki and IC50 inhibition parameters; assay type: biochemical; details: for Ki: Morrison equation, 15 min pre-incubation with inhibitor at 37 C
T2 construct: made in house

HepG2 cells = assay: Intracellular lipid accumulation, in vitro cellular model of NASH; assay type: cell-based; set-up: inhibition of intracellular lipid-accumulation: dose or concentration left out as unconfirmed; details: for inhibition of intracellular lipid-accumulation: NASH-triggered HepG2 cultures, FIG. 4
Experimental: HepG2 cells (50.000 cells/well) were plated into 12-multiwell culture dishes on coverslips previously coated with collagen (2 mg/mL collagen solution (BD Biosciences) in PBS incubated at 37° C. for 30 min).
Cells were treated with a “NASH cocktail”: DMEM containing 4.5 mg/mL glucose supplemented with 10% (v/v) FBS, 1% (v/v) PenStrep and 2 mM L-glutamine plus fatty acids (100 μM sodium oleate and 100 μM palmitic acid), 100 nM insulin (all Sigma-Aldrich) and inflammatory cytokines (50 ng/ml tumor necrosis factor, TNF-α (Prospec), 25 ng/ml interleukin IL-1β (Petroteck) and 8 ng/ml transforming growth factor, TGF-β (R&D Systems)). The cells were exposed for 24h to this “NASH cocktail” and KIN compounds were concomitantly added at different concentrations.
At the end of treatments cells were washed with PBS and incubated with staining solution (BODIPY493/503 (Thermo Fisher Scientific) for 15 min at 37° C. Then cells were washed three times with PBS and were fixed in 4% PFA for 30 min at room temperature. After three additional washes with PBS, coverslips were mounted onto glass slides with a drop of Prolong® Gold antifade reagent (Invitrogen) with DAPI overnight at room temperature. Fluorescence micrographs were taken using an Axoimagen M1 microscope (Zeiss, Oberkochen, Germany) and fluorescent signals (DAPI and BODIPY) were quantified using ImageJ (n=10). The intracellular lipid load was calculated as a function of BODIPY™ 493/503 lipid dye area.
An in vitro cellular model of NASH was used to test the efficacy of caspase-2 inhibitors preventing intracellular accumulation of lipids. In this model, HepG2 cells are exposed for 24 h to “NASH conditions” including lipogenic (glucose, insulin, fatty acids) and inflammatory and pro-apoptotic (TNF-α, IL-1β, and TGF-β) triggers. […] This model has shown to correlate with human NASH pathology (Boeckmans et al. 2019).

caspase-3 [4] = molecular target: T3, caspase-3 (Homo sapiens, UniProt P42574); assay: Determination of Ki and IC50 inhibition parameters; assay type: biochemical; details: for Ki: Morrison equation, 15 min pre-incubation with inhibitor at 37 C
T3 construct: made in house
T3 sequence (P42574 29-175 limits assumed): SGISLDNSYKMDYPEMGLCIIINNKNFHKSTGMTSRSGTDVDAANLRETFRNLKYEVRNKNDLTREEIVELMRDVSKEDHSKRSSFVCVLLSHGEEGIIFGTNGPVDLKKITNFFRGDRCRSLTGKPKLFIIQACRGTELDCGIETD
T3 sequence (P42574 176-277 limits assumed): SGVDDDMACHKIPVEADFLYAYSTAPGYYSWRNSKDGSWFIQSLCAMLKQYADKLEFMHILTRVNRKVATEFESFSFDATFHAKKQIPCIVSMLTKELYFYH
Experimental: (§1) The detailed protocol for the expression and purification of human apoptotic caspases can be found elsewhere (Stennicke, 1999).
(§2) The measurement of Ki and IC50 inhibition parameter of synthesized inhibitors towards caspases-2, -3, and -8 was performed using a fMax spectrofluorimeter (Molecular Devices, Sunnyvale, CA, USA) operating in fluorescence kinetic mode in 96-well Corning (Corning, NY, USA) plates. Before kinetic analysis, all caspases were active site-titrated using the zVAD-fmk inhibitor (Cayman Chemical Company, Cat No. 14467). The caspases assay buffer was 10% w/v sucrose, […], 20 mM Pipes, 10 mM NaCl, 1 mM EDTA, and 10 mM DTT (pH=7.3). Buffers were prepared at room temperature, and all kinetic assays were performed at 37° C. The Ki parameter was measured using the Morrison equation (Copeland, 2000). For each caspase, an appropriate ACC-fluorogenic substrate was used to monitor substrate hydrolysis: NH-Idc-hGlu-Thr(Bzl)-Ser-Asp-ACC (50 uM) for caspase-2, Ac-DEVD-ACC (100 uM) for caspase-3 and Ac-LEHD-ACC (100 uM) for caspase-8. The ACC fluorescence was monitored using 355 nm (excitation) and 460 nm (emission) wavelengths. To meet the criteria for reversible inhibitor kinetics, the lowest inhibitor concentration was at least 4-fold higher that the caspase concentration in the assay. The caspase (60 uL) was first pre-warmed in the assay buffer in the 96-well plate for 15 min at 37 C and then pre-incubated with the inhibitor (20 uL) for another 15 min at 37 C. Next, the substrate (20 uL) was added to the enzyme-inhibitor mixture and the progress of reaction (ACC release) was monitored over time. The Ki parameter was calculated from Morrison equation, and the IC50 parameter was calculated using the formula: IC50=Ki×(1+[S]/Km], where the [S] is substrate concentration used in the assay and Km is a Michaelis-Menten constant for a substrate. All the measurements were performed at least three times and the data was analyzed using GraphPad Prism 7 software.

caspase-2 [5] = molecular target: T1, caspase-2; assay: Determination of Ki and IC50 inhibition parameters; assay type: biochemical; set-up: made in house; details: for Ki: Morrison equation, 15 min pre-incubation with inhibitor at 37 C; for IC50: calculated as IC50=Ki×(1+[S]/Km), substrate NH-Idc-hGlu-Thr(Bzl)-Ser-Asp-ACC 50 uM
Experimental: as §1, §2

caspase-2 [6] = molecular target: T1, caspase-2; details: Poreba et al. (2019); cited from earlier work
caspase-2 [7] = molecular target: T1, caspase-2; assay: Determination of kobs/I inhibition parameter; assay type: biochemical; set-up: made in house; details: pH 7.3; pseudo-first-order conditions; substrate NH-Idc-hGlu-Thr(Bzl)-Ser-Asp-ACC 50 uM; 37° C.
Experimental: (§3) The measurement of kobs/l inhibition parameter (second order rate of enzyme inhibition) of synthesized inhibitors towards caspases-2, -3, and -8 was performed using a fMax spectrofluorimeter (Molecular Devices, Sunnyvale, CA, USA) operating in fluorescence kinetic mode in 96-well Corning (Corning, NY, USA) plates. Before kinetic analysis, all caspases were active site-titrated using the zVAD-fmk inhibitor (Cayman Chemical Company, Cat No. 14467). The caspases assay buffer was 10% w/v sucrose, […], 20 mM Pipes, 10 mM NaCl, 1 mM EDTA, and 10 mM DTT (pH=7.3). Buffers were prepared at room temperature, and all kinetic assays were performed at 37° C. The kobs/l parameter was measured under pseudo-first-order kinetic conditions ([I]>>[E]). […] The ACC fluorescence was monitored using 355 nm (excitation) and 460 nm (emission) wavelengths. […] At the same time in a separate tube, the caspase was preincubated in assay buffer at 37 C, and after 15 min, the enzyme was added to wells (60 uL per well, total reaction volume 100 uL) and the fluorescence was monitored for 30 min, starting immediately. Second-order rate of inhibition (Kobs/l) was determined in at least three independent experiments and presented as an average value. […]

caspase-8 [8] = molecular target: T2, caspase-8; assay: Determination of kobs/I inhibition parameter; assay type: biochemical; details: pH 7.3; pseudo-first-order conditions; substrate Ac-LEHD-ACC 100 uM; 37° C.
Experimental: as §3

caspase-3 [9] = molecular target: T3, caspase-3; assay: Determination of kobs/I inhibition parameter; assay type: biochemical; details: pH 7.3; pseudo-first-order conditions; substrate Ac-DEVD-ACC 100 uM; 37° C.
Experimental: as §3

[10] = calculated as IC50=Ki×(1+[S]/Km), substrate Ac-LEHD-ACC 100 uM
[11] = calculated as IC50=Ki×(1+[S]/Km), substrate Ac-DEVD-ACC 100 uM

T2 sequence (Q14790 217-374 limits assumed): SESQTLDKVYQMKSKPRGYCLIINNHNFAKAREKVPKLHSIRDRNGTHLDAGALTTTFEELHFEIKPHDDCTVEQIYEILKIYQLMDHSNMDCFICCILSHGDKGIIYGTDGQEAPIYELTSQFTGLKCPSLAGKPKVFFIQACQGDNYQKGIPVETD
T2 sequence (Q14790 385-479 limits assumed): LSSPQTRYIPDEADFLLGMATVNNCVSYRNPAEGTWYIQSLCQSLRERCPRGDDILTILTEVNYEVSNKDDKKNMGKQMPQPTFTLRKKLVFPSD

| Ki (caspase-8 [3]) [nM] | IC50 (caspase-8 [3]; [10]) [nM] | Ki (caspase-3 [4]) [nM] | IC50 (caspase-3 [4]; [11]) [nM] | Ki (caspase-2 [5]) [nM] | IC50 (caspase-2 [5]) [nM] | Compound | inhibition of intracellular lipid-accumulation (HepG2 cells) | further results |
| --- | --- | --- | --- | --- | --- | --- | --- | --- |
|  |  |  |  |  |  | Ac-VDVAD-aldehyde |  | potency against caspase-3 compared with caspase-2 (caspase-2 [1]): more potent against caspase-3 than to caspase-2 |
|  |  |  |  |  |  | NH-Idc-hLeu-Thr(Bzl)-Dab-Asc-ACC |  | RFU/s, %, average (cleavage rate, best substrate set to 100%) (caspase-2 [2]): 0.0% |
| 43.3 | 320 | 13.8 | 91 | 0.7 | 7.4 | NH-Idc-hGlu-Thr(Bzl)-Orn-Asp-AOMK [Compound 3] | significantly higher percentage of inhibition than NH-23-C2 compound |  |
| 6.2 | 46.2 | 1.1 | 7.1 | 0.7 | 7.9 | NH-Idc-hGlu-Thr(Bzl)-Ser-Asp-AOMK [reference compound] |  | Caspase-2 inhibitory activity (caspase-2 [6]): highest Caspase-2 inhibitory activity among the assayed compounds; selectivity for Caspase-3 (caspase-2 [6]): no selectivity for Caspase-3; selectivity for Caspase-8 (caspase-2 [6]): limited selectivity for Caspase-8 |
| 2.2 |  |  |  | 0.4 | 4.9 | CC(=O)N[C@H](C(=O)N[C@@H](CC(=O)O)C(=O)N[C@H](C(=O)N[C@@H](C)C(=O)N[C@@H](CC(=O)O)C(=O)COC(=O)c1c(C)cccc1C)C(C)C)C(C)C [Ac-Val-Asp-Val-Ala-Asp-AOMK, reference compound] (Ac-VDVA-{AspCH2OBz(2,6-Me2)}) |  | kinact/KI (caspase-2 [7]): 643 M⁻¹ s⁻¹; IC50 (caspase-8 [3]): 16 nM; IC50 (caspase-3 [4]): 0.1 nM; kinact/KI (caspase-8 [8]): 98.4 M⁻¹ s⁻¹; kinact/KI (caspase-3 [9]): 1.36e+06 M⁻¹ s⁻¹ |
| 209 | 1540 | 29.3 | 193 | 1.1 | 12 | NH-Idc-hGlu-Thr(Bzl)-Dab-Asp-AOMK [Compound 2] | significantly higher percentage of inhibition than NH-23-C2 compound |  |
| 6.7 | 49.8 | 3.8 | 24.8 | 0.8 | 8.8 | NH-Idc-hGlu-Thr(Bzl)-Lys-Asp-AOMK [Compound 1] | significantly higher percentage of inhibition than NH-23-C2 compound | efficacy inhibiting intracellular lipid accumulation (HepG2 cells; HepG2 under NASH conditions, inhibitors at 10, 20 and […], FIG. 5): better efficacy than NH-23-C2 |

Reference: patent publication US20250270255A1, “CASPASE-2 INHIBITOR COMPOUNDS” (KINTSUGI THERAPEUTICS S.L., priority 2021, published 2025)
